Target: T1, RORc ligand binding domain (Homo sapiens, UniProt P51449)
T1 construct: host or cells: E. coli
T1 sequence (P51449 269-508 limits assumed): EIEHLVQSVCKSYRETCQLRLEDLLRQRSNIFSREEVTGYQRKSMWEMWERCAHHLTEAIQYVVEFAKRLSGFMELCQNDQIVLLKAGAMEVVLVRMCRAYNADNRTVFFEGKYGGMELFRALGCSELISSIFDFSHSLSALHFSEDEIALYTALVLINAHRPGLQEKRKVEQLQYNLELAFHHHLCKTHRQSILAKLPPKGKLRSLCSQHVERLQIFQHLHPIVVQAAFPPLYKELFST
Experiment: In vitro RORc ligand binding assay (25-[3H]hydroxycholesterol displacement, filter binding)
Details: 6 nM 25-[3H]hydroxycholesterol, 0.6 ug/mL RORc receptor, 3 h at 25° C.
Outline: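 Compounds in 5% DMSO, either dose-response or screened at 1 and 10 uM, competed with 6 nM 25-[3H]hydroxycholesterol for 0.6 ug/mL RORc over 3 h at 25° C (HEPES pH 7.4, NaCl, MgCl2, DTT, BSA buffer). Bound tracer was filter-harvested and counted; nonspecific binding came from 1 uM 25-hydroxycholesterol.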

Row | Compound | IC50 [nM]
1 | CCN(CC(N)=O)C[C@@]12CC[C@@H](c3cc(-c4c(F)cccc4F)nnc31)C2(C)C [Example 304, 2-((((5R,8S)-3-(2,6-difluorophenyl)-9,9-dimethyl-5,6,7,8-tetrahydro-5,8-methanocinnolin-8-yl)methyl)(ethyl)amino) acetamide] | 56
2 | CC1(C)[C@H]2CC[C@]1(CN(CC(N)=O)CC(F)F)c1nnc(-c3c(F)cccc3F)cc12 [Example 305, 2-((2,2-difluoroethyl)(((5R,8S)-3-(2,6-difluorophenyl)-9,9-dimethyl-5,6,7,8-tetrahydro-5,8-methanocinnolin-8-yl)methyl)amino) acetamide] | 437
3 | CN(CC(N)=O)[C@@]12CC[C@@H](c3cc(-c4c(F)cccc4F)nnc31)C2(C)C [Example 306, 2-(((5R,8R)-3-(2,6-difluorophenyl)-9,9-dimethyl-5,6,7,8-tetrahydro-5,8-methanocinnolin-8-yl)(methyl)amino) acetamide] | 920
4 | CC1(C)[C@H]2CC[C@]1(NCC(F)F)c1nnc(-c3c(F)cccc3F)cc12 [Example 307, (5R,8R)-N-(2,2-difluoroethyl)-3-(2,6-difluorophenyl)-9,9-dimethyl-5,6,7,8-tetrahydro-5,8-methanocinnolin-8-amine] | 71
5 | CC1(C)[C@H]2CC[C@]1(CN(CC(F)F)C(=O)CO)c1nnc(-c3c(F)cccc3F)cc12 [Example 308, N-(2,2-difluoroethyl)-N-(((5R,8S)-3-(2,6-difluorophenyl)-9,9-dimethyl-5,6,7,8-tetrahydro-5,8-methanocinnolin-8-yl)methyl)-2-hydroxyacetamide] | 22
6 | CC1(C)[C@H]2CC[C@]1(CNCCC#N)c1nnc(-c3c(F)cccc3F)cc12 [Example 309, 3-((((5R,8S)-3-(2,6-difluorophenyl)-9,9-dimethyl-5,6,7,8-tetrahydro-5,8-methanocinnolin-8-yl)methyl)amino) propanenitrite] | 590
7 | CC1(C)[C@H]2CC[C@]1(CN(CCC#N)C(N)=O)c1nnc(-c3c(F)cccc3F)cc12 [Example 310, 1-(2-cyanoethyl)-1-(((5R,8S)-3-(2,6-difluorophenyl)-9,9-dimethyl-5,6,7,8-tetrahydro-5,8-methanocinnolin-8-yl)methyl)urea] | 363
8 | COCC(=O)N(CCC#N)C[C@@]12CC[C@@H](c3cc(-c4c(F)cccc4F)nnc31)C2(C)C [Example 311, N-(2-cyanoethyl)-N-(((5R,8S)-3-(2,6-difluorophenyl)-9,9-dimethyl-5,6,7,8-tetrahydro-5,8-methanocinnolin-8-yl)methyl)-2-methoxyacetamide] | 176
9 | CCOC(=O)N(CCC#N)C[C@@]12CC[C@@H](c3cc(-c4c(F)cccc4F)nnc31)C2(C)C [Example 312, ethyl (2-cyanoethyl)(((5R,8S)-3-(2,6-difluorophenyl)-9,9-dimethyl-5,6,7,8-tetrahydro-5,8-methanocinnolin-8-yl)methyl)carbamate] | 45
10 | CN(C(=O)CO)[C@@]12CC[C@@H](c3cc(-c4c(F)cccc4F)nnc31)C2(C)C [Example 313, N-((5R,8R)-3-(2,6-difluorophenyl)-9,9-dimethyl-5,6,7,8-tetrahydro-5,8-methanocinnolin-8-yl)-2-hydroxy-N-methylacetamide] | 393
11 | C[C@@H]1CN(C[C@@]23CC[C@@H](c4cc(-c5c(F)cccc5F)nnc42)C3(C)C)C(=O)O1 [Example 314, (R)-3-(((5R,8S)-3-(2,6-difluorophenyl)-9,9-dimethyl-5,6,7,8-tetrahydro-5,8-methanocinnolin-8-yl)methyl)-5-methyloxazolidin-2-one] | 454
12 | C[C@H]1CN(C[C@@]23CC[C@@H](c4cc(-c5c(F)cccc5F)nnc42)C3(C)C)C(=O)O1 [Example 315, (S)-3-(((5R,8S)-3-(2,6-difluorophenyl)-9,9-dimethyl-5,6,7,8-tetrahydro-5,8-methanocinnolin-8-yl)methyl)-5-methyloxazolidin-2-one] | 350
13 | CC1(C)[C@H]2CC[C@]1(CN(CCC#N)C(=O)CO)c1nnc(-c3c(F)cccc3F)cc12 [Example 316, N-(2-cyanoethyl)-N-(((5R,8S)-3-(2,6-difluorophenyl)-9,9-dimethyl-5,6,7,8-tetrahydro-5,8-methanocinnolin-8-yl)methyl)-2-hydroxyacetamide] | 233
14 | CC1(C)[C@H]2CC[C@]1(CNC1COC1)c1nnc(-c3c(F)cccc3F)cc12 [Example 317, N-(((5R,8S)-3-(2,6-difluorophenyl)-9,9-dimethyl-5,6,7,8-tetrahydro-5,8-methanocinnolin-8-yl)methyl)oxetan-3-amine] | 1920
15 | CCN(C[C@@]12CC[C@@H](c3cc(-c4c(F)cccc4F)nnc31)C2(C)C)C(=O)CS(C)(=O)=O [Example 318, N-(((5R,8S)-3-(2,6-difluorophenyl)-9,9-dimethyl-5,6,7,8-tetrahydro-5,8-methanocinnolin-8-yl)methyl)-N-ethyl-2-(methylsulfonyl)acetamide] | 33
16 | CN([C@@]12CC[C@@H](c3cc(-c4c(F)cccc4F)nnc31)C2(C)C)S(=O)(=O)C(F)(F)F [Example 319, N-((5R,8R)-3-(2,6-difluorophenyl)-9,9-dimethyl-5,6,7,8-tetrahydro-5,8-methanocinnolin-8-yl)-1,1,1-trifluoro-N-methylmethanesulfonamide] | 52
17 | CN(C)C(=O)N[C@@]12CC[C@@H](c3cc(-c4c(F)cccc4F)nnc31)C2(C)C [Example 320, 3-((5R,8R)-3-(2,6-difluorophenyl)-9,9-dimethyl-5,6,7,8-tetrahydro-5,8-methanocinnolin-8-yl)-1,1-dimethylurea] | 1500
18 | CC(=O)NC(C)(C)[C@@]12CC[C@@H](c3cc(-c4c(F)cccc4F)nnc31)C2(C)C [Example 321, N-(2-((5R,8S)-3-(2,6-difluorophenyl)-9,9-dimethyl-5,6,7,8-tetrahydro-5,8-methanocinnolin-8-yl)propan-2-yl)acetamide] | 79
19 | CC1(C)[C@H]2CC[C@]1(N(CC(F)F)C(=O)CO)c1nnc(-c3c(F)cccc3F)cc12 [Example 322, N-(2,2-difluoroethyl)-N-((5R,8R)-3-(2,6-difluorophenyl)-9,9-dimethyl-5,6,7,8-tetrahydro-5,8-methanocinnolin-8-yl)-2-hydroxyacetamide] | 1460
20 | CCN(C[C@@]12CC[C@@H](c3cc(-c4c(F)cccc4F)nnc31)C2(C)C)c1cncc(=O)[nH]1 [Example 323, 6-((((5R,8S)-3-(2,6-difluorophenyl)-9,9-dimethyl-5,6,7,8-tetrahydro-5,8-methanocinnolin-8-yl)methyl)(ethyl)amino) pyrazin-2(1H)-one] | 12
21 | C[C@H](O)C(=O)N(CCC#N)C[C@@]12CC[C@@H](c3cc(-c4c(F)cccc4F)nnc31)C2(C)C [Example 324, (S)-N-(2-cyanoethyl)-N-(((5R,8S)-3-(2,6-difluorophenyl)-9,9-dimethyl-5,6,7,8-tetrahydro-5,8-methanocinnolin-8-yl)methyl)-2-hydroxypropanamide] | 732
22 | CN(C)C(=O)N(C)[C@@]12CC[C@@H](c3cc(-c4c(F)cccc4F)nnc31)C2(C)C [Example 325, 1-((5R,8R)-3-(2,6-difluorophenyl)-9,9-dimethyl-5,6,7,8-tetrahydro-5,8-methanocinnolin-8-yl)-1,3,3-trimethylurea] | 944
23 | CC1(C)[C@H]2CC[C@]1(CN1CC(C#N)C1)c1nnc(-c3c(F)cccc3F)cc12 [Example 326, 1-(((5R,8S)-3-(2,6-difluorophenyl)-9,9-dimethyl-5,6,7,8-tetrahydro-5,8-methanocinnolin-8-yl)methyl)azetidine-3-carbonitrile] | 1920
24 | CCOC(=O)c1nnc([C@@]23CC[C@@H](c4cc(-c5c(F)cccc5F)nnc42)C3(C)C)o1 [Example 327, ethyl 5-((5R,8R)-3-(2,6-difluorophenyl)-9,9-dimethyl-5,6,7,8-tetrahydro-5,8-methanocinnolin-8-yl)-1,3,4-oxadiazole-2-carboxylate] | 1390
25 | CC1(C)[C@@H]2CC[C@@]1(CNCC(F)F)c1nnc(-c3c(F)cccc3F)cc12 [Example 328, N-(((5S,8R)-3-(2,6-difluorophenyl)-9,9-dimethyl-5,6,7,8-tetrahydro-5,8-methanocinnolin-8-yl)methyl)-2,2-difluoroethanamine] | 74
26 | CC1(C)[C@H]2CC[C@]1(COc1cnccn1)c1nnc(-c3c(F)cccc3F)cc12 [Example 329, (5R,8R)-3-(2,6-difluorophenyl)-9,9-dimethyl-8-((pyrazin-2-yloxy)methyl)-5,6,7,8-tetrahydro-5,8-methanocinnoline] | 271
27 | CC1(C)[C@H]2CC[C@]1(COc1cncc(=O)[nH]1)c1nnc(-c3c(F)cccc3F)cc12 [Example 330, 6-(((5R,8R)-3-(2,6-difluorophenyl)-9,9-dimethyl-5,6,7,8-tetrahydro-5,8-methanocinnolin-8-yl)methoxy)pyrazin-2(1H)-one] | 1980
28 | CCNC[C@@]12CC[C@@H](c3cc(-c4c(F)cccc4F)nnc31)C2(C)C [Example 331, N-(((5R,8S)-3-(2,6-difluorophenyl)-9,9-dimethyl-5,6,7,8-tetrahydro-5,8-methanocinnolin-8-yl)methyl)ethanamine] | 877
29 | CC1(C)[C@@H]2CC[C@@]1(C(=O)N1CC(F)(F)C1)c1nnc(-c3ccccc3F)cc12 [Example 332, (3,3-difluoroazetidin-1-yl)((5S,8S)-3-(2-fluorophenyl)-9,9-dimethyl-5,6,7,8-tetrahydro-5,8-methanocinnolin-8-yl)methanone] | 1400
